Results on one molecule are retold here after patent US20260108463A1, “NANOEMULSION FORMULATION WITH IMPROVED TACROLIMUS STABILITY AND SKIN PENETRATION” (BIOFRONTERA BIOSCIENCE GMBH, priority 2023, published 2026).

Where two headings read alike, the source gives them in different places.

The conditions of data set [1]: cited from earlier work.
The conditions of data set [2]: cited from earlier work. This is another data set of the same source.
Data set [3] is described as follows: Solubility test of tacrolimus by visual observation. It counts as physicochemical. As to conditions: aqueous nanoemulsion BF200 (at least 90% water content), aqueous with cosolvent or surfactant or cyclodextrin. The procedure: Tacrolimus was dissolved by mechanical techniques (stirring). Determination of a complete solution of substance was based on visual observation. A complete dissolution was defined as a clear solution with no signs of cloudiness or precipitation. The pure solvents were used as reference.
Samples were prepared as explained in Example D. The compound was dissolved in 10 mM Phosphate buffer (TC2) at defined concentration (see table below). For samples TC3, TC4 and TC5 the lipid phase (intermediate) of nanoemulsion BF200 was used as solvent. In a first step, Tacrolimus was dissolved in the lipid phase, followed by the preparation of the nanoemulsion by combining the aqueous phase with the lipid phase (containing Tacrolimus). Samples TC4 and TC5 were stored at 5° C. and 25° C. for a period of 6 months.

Broadly, the logP is the decadic logarithm of the partition coefficient of the neutral form, usually between octanol and water. As usually defined, the solubility is the dissolved amount per volume that the medium holds. A high value points to much dissolved substance. For `C=CC[C@@H]1/C=C(\C)C[C@H](C)C[C@H](OC)[C@H]2O[C@@](O)(C(=O)C(=O)N3CCCC[C@H]3C(=O)O[C@H](/C(C)=C/[C@@H]3CC[C@@H](O)[C@H](OC)C3)[C@H](C)[C@@H](O)CC1=O)[C@H](C)C[C@@H]2OC` [Tacrolimus], in data set [1], the logP is above 3. The “Stability in aqueous formulations” value in data set [2] (5° C., prior-art aqueous formulations (suspensions)) is given as “up to 9 months”; in data set [2] (room temperature, prior-art aqueous formulations (suspensions)), “approx. 3 months”; in data set [2] (room temperature, prior-art aqueous formulations), “approx. 90 days”. The solubility in data set [3] is at least 2000 µg/mL.
